Values of other authors as cited in patent US20240374497A1, “COMPOSITIONS COMPRISING OR2AT4 AGONISTS” (Coty Inc., priority 2021, published 2024).

Tests used:
human epidermis = details: ex vivo; selective activation of OR2AT4
[1] = test system: human epidermal keratinocyte; details: in vitro; selective activation of OR2AT4
[2] = biological target: T1, olfactory receptor OR2AT4 (Homo sapiens, UniProt A6NND4); details: receptor expressed in the epithelium of human hair follicles
T1 sequence (A6NND4 1-320): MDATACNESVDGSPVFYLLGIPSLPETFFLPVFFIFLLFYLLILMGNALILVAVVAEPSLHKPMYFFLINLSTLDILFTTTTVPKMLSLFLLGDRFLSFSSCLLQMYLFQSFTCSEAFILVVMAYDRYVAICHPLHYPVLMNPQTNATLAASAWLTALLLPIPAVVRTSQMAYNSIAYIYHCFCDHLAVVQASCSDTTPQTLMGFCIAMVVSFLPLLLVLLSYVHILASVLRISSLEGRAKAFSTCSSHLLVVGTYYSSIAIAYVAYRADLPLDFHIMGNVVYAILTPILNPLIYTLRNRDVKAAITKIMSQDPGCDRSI

Structure (SMILES) | wound re-epithelialization (human epidermis) | human epidermal keratinocyte migration and proliferation [1] | effect on the olfactory receptor OR2AT4 [2] | hair growth ex vivo (human hair follicles) | apoptosis (human hair follicles; ex vivo) | production of growth factor IGF-1 (human hair follicles; ex vivo)
CC1=CCC(CCC(C)C(C)O)C1(C)C (stereo not drawn) [Sandalore®] | promotes | promotes human epidermal keratinocyte migration and proliferation |  |  |  | 
CC1=CCC(CCC(C)C(C)O)C1(C)C (stereo not drawn) [sandal pentanol, 3-methyl-5-(2,2,3-trimethylcyclopent-3-en-1-yl)pentan-2-ol] |  |  | stimulatory effect | prolongs hair growth | decreasing apoptosis | increasing the production of growth factor IGF-1
